From the supplement of paper PMC10307832

Tests used:
Test in all cases: relative viability (nuclei count vs DMSO), 5 days (fraction); higher = more cells survive
R406 + Dasatinib = compound: COc1cc(Nc2ncc(F)c(Nc3ccc4c(n3)NC(=O)C(C)(C)O4)n2)cc(OC)c1OC [R406] + Cc1nc(Nc2ncc(C(=O)Nc3c(C)cccc3Cl)s2)cc(N2CCN(CCO)CC2)n1 [Dasatinib] (partner 0.075 µM)
Summary of the method: (§1)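 For relative viability, nuclei counts in treated wells were divided by those in vehicle wells. Lung cancer cell lines had been pin-tool dosed in 1536-well plates the day after seeding and cultured for 5 days, then fixed and stained in one step (final 0.05% Triton X-100, 1% formaldehyde, 1 ug/ml Hoechst) and imaged at 4×. Doses were one drug alone or a fixed anchor-drug dose plus five library-drug doses (not always all listed) in √10 steps, and values are duplicate-plate medians.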

R406 + Alpelisib = compound: COc1cc(Nc2ncc(F)c(Nc3ccc4c(n3)NC(=O)C(C)(C)O4)n2)cc(OC)c1OC [R406] + Cc1nc(NC(=O)N2CCC[C@H]2C(N)=O)sc1-c1ccnc(C(C)(C)C(F)(F)F)c1 [Alpelisib] (partner 2 µM)
Summary of the method: as §1

Daporinad + Foretinib = compound: O=C(/C=C/c1cccnc1)NCCCCC1CCN(C(=O)c2ccccc2)CC1 [Daporinad] + COc1cc2c(Oc3ccc(NC(=O)C4(C(=O)Nc5ccc(F)cc5)CC4)cc3F)ccnc2cc1OCCCN1CCOCC1 [Foretinib] (partner 0.25 µM)
Summary of the method: as §1

Daporinad + Crizotinib = compound: O=C(/C=C/c1cccnc1)NCCCCC1CCN(C(=O)c2ccccc2)CC1 [Daporinad] + C[C@@H](Oc1cc(-c2cnn(C3CCNCC3)c2)cnc1N)c1c(Cl)ccc(F)c1Cl [Crizotinib] (partner 1 µM)
Summary of the method: as §1

Cell Line | relative viability (R406 + Dasatinib; first compound 0.08 µM) | relative viability (R406 + Dasatinib; first compound 0.253 µM) | relative viability (R406 + Dasatinib; first compound 0.8 µM) | relative viability (R406 + Dasatinib; first compound 2.53 µM) | relative viability (R406 + Dasatinib; first compound 8 µM) | relative viability (R406 + Alpelisib; first compound 0.08 µM) | relative viability (R406 + Alpelisib; first compound 0.253 µM) | relative viability (R406 + Alpelisib; first compound 0.8 µM) | relative viability (R406 + Alpelisib; first compound 2.53 µM) | relative viability (R406 + Alpelisib; first compound 8 µM) | relative viability (Daporinad + Foretinib; first compound 0.0005 µM) | relative viability (Daporinad + Foretinib; first compound 0.001581 µM) | relative viability (Daporinad + Foretinib; first compound 0.005 µM) | relative viability (Daporinad + Foretinib; first compound 0.01581 µM) | relative viability (Daporinad + Crizotinib; first compound 0.0005 µM) | relative viability (Daporinad + Crizotinib; first compound 0.001581 µM) | relative viability (Daporinad + Crizotinib; first compound 0.005 µM) | relative viability (Daporinad + Crizotinib; first compound 0.01581 µM)
201T | 0.578 | 0.548 | 0.502 | 0.467 | 0.41 | 1.03 | 1.02 | 1.04 | 0.979 | 0.86 | 1.08 | 1.14 | 1.02 | 1.16 | 0.954 | 1.05 | 1.04 | 1.03
A549 | – | – | – | – | – | 0.703 | 0.932 | 0.811 | 0.646 | 0.164 | 1.03 | 0.964 | 0.887 | 0.867 | 0.903 | 0.777 | 0.844 | 0.546
A-427 | 0.743 | 0.746 | 0.74 | 0.427 | 0.54 | 1.14 | 1.17 | 1.12 | 0.928 | 0.843 | 1.01 | 1.06 | 1.08 | 0.596 | 0.857 | 0.917 | 0.994 | 0.749
ABC-1 | 0.535 | 0.54 | 0.415 | 0.363 | 0.298 | 1.3 | 0.963 | 1.29 | 0.821 | 0.518 | 1.09 | 1.01 | 1.01 | 0.662 | 0.862 | 1.23 | 1.02 | 0.68
BEN | 0.337 | 0.312 | 0.309 | 0.413 | 0.31 | 1.08 | 1.3 | 1.07 | 0.99 | 0.766 | 0.513 | 0.722 | 0.735 | 0.773 | 0.849 | 0.879 | 0.91 | 1.1
CAL-12T | 0.357 | 0.397 | 0.483 | 0.0973 | 0.0797 | 1.3 | 1.54 | 1.83 | 1.03 | 0.923 | 1.09 | 0.938 | 0.758 | 0.272 | 0.659 | 0.535 | 0.367 | 0.185
COR-L23 | 0.464 | 0.469 | 0.598 | 0.379 | 0.158 | 0.725 | 0.947 | 0.828 | 0.553 | 0.388 | 0.993 | 1.01 | 1.14 | 0.282 | 0.819 | 0.651 | 0.568 | 0.153
COR-L 105 | 0.332 | 0.387 | 0.354 | 0.317 | 0.204 | 1.26 | 1.01 | 1.4 | 0.757 | 0.641 | 1.09 | 0.812 | 0.983 | 1.14 | 0.763 | 0.722 | 0.723 | 0.798
Calu-6 | – | – | – | – | – | 1.01 | 1.14 | 1.13 | 0.66 | 0.389 | 0.768 | 0.874 | 0.772 | 0.35 | 0.902 | 0.846 | 0.797 | 0.514
ChaGo-K-1 | 0.568 | 0.579 | 0.661 | 0.498 | 0.442 | – | – | – | – | – | 0.968 | 0.943 | 0.966 | 0.382 | 1.15 | 1.18 | 0.896 | 0.379
EBC-1 | – | – | – | – | – | 0.826 | 0.969 | 1.03 | 0.606 | 0.386 | 0.101 | 0.0907 | 0.0742 | 0.0756 | 0.185 | 0.166 | 0.162 | 0.181
EKVX | 0.626 | 0.32 | 0.511 | 0.402 | 0.367 | 0.928 | 0.992 | 1.06 | 0.77 | 0.635 | 0.747 | 0.443 | 0.877 | 0.756 | 0.891 | 1.01 | 1.01 | 0.993
EMC-BAC-2 | 0.293 | 0.331 | 0.385 | 0.186 | 0.173 | 0.773 | 0.786 | 0.801 | 0.628 | 0.384 | 1.14 | 1.1 | 0.518 | 0.314 | 0.743 | 0.763 | 0.527 | 0.247
EPLC-272H | 0.319 | 0.39 | 0.321 | 0.128 | 0.102 | 0.989 | 1.2 | 0.969 | 0.607 | 0.567 | 0.695 | 0.925 | 0.845 | 1.11 | 0.884 | 1.03 | 1.01 | 1.11
H3255 | 0.33 | – | 0.372 | 0.285 | 0.317 | 0.693 | 0.746 | 0.623 | 0.511 | 0.418 | 0.709 | 0.688 | 0.672 | 0.992 | 0.782 | 0.937 | 0.853 | 0.864
HARA | 0.235 | 0.267 | 0.296 | 0.248 | 0.113 | 0.801 | 0.721 | 0.879 | 0.637 | 0.249 | 0.942 | 0.98 | 0.922 | 0.279 | 1.05 | 1.07 | 1.07 | 0.291
HCC-15 | 0.629 | 0.735 | 0.662 | 0.602 | 0.331 | 0.859 | 0.887 | 0.981 | – | 0.753 | 0.916 | 1.22 | 1.12 | 1.12 | 0.785 | 0.853 | 0.907 | 0.831
HCC-44 | – | – | – | – | – | 0.787 | 1 | 0.883 | 0.739 | 0.262 | – | – | – | – | 0.768 | 0.787 | 0.899 | 0.747
HCC-78 | 0.362 | 0.335 | 0.4 | 0.307 | 0.237 | 0.313 | 0.33 | 0.377 | 0.295 | 0.214 | 0.54 | – | 0.594 | 0.62 | 0.333 | 0.362 | 0.331 | 0.428
